Entries after “also recorded” stand apart in the source; their conditions may differ. Peptide text beside a SMILES is read from it. * marks the point of attachment. Cbz = O=C(OCc1ccccc1)*
Legend:
[1] = tested on: human lung adenocarcinoma (A-549) xenografts; assay: human lung adenocarcinoma A-549 xenografts in nude mice; assay type: in vivo; details: Z-VLL-CHO 5 mg/Kg; for vascularization (vascular index) of A-549 tumors versus vehicle: DAPT 10 mg/Kg intraperitoneally, CD31/PECAM-1 immunostaining; for growth (tumor volume) of A-549 xenografts versus vehicle: intraperitoneally everyday for 12 days, DAPT 10 mg/Kg
Procedure: FIG. 9a: Anti-tumoral effect of the γ-secretase inhibitor DAPT and of the β-secretase inhibitor Z-VLL-CHO on human lung adenocarcinoma (A-549) xenografts growth rates. A-549 cells (8.5×10^6) were injected subcutaneously into both flanks of 8-10 weeks-old nude mice. Mice were injected intraperitoneally with either the vehicle, 5 mg/Kg of body weight of the β-secretase inhibitor Z-VLL-CHO or 10 mg/Kg of body weight of the γ-secretase inhibitor DAPT, starting when tumors had reached a mean tumor volume of approximately 200 mm^3 (day 21 post implantation). Injections were given everyday for 12 days. […] FIG. 9b: Representative pictures of sections of lung adenocarcinoma tumors immunostained with CD31 antibodies. FIG. 9c: Histogram depicting the quantification of the vascularization of lung adenocarcinoma tumors.
FIG. 10: Anti-tumoral effect of the γ-secretase inhibitor JLK-6 on human lung adenocarcinoma (A-549) xenografts growth rates. A-549 cells (8.5×10^6) were injected subcutaneously into both flanks of 8-10 weeks-old nude mice. Mice were injected intraperitoneally everyday from Day 16 (when the tumors reached a volume of approximately 150 mm^3) with either the vehicle or 5 mg/Kg of body weight of the γ-secretase inhibitor JLK-6.
(§1) The human glioblastoma U-87 MG and human lung adenocarcinoma A-549 cell lines were obtained from American Tissue Culture Type Collection (Manassas, Va.) and were grown in DMEM containing 1×penicilline-streptomycine-fungizone and 10% fetal bovine serum at 37° C. in a humidified atmosphere of 5% CO2. Tumor cells (6×106) in 100 μl of PBS were inoculated subcutaneously into both flanks of 8-10-week-old female nude mice (Harland). Tumor volume (in mm^3) was determined using the formula (length×width^2)/2, where length was the longest axis and width the measurement at right angles to the length (Clarke et al. 2000). When the tumor volumes reached approximately 150 mm^3, animals were treated intraperitoneally everyday with 100 μl of 50% DMSO/H2O (vehicle group), 5 mg/Kg of body weight of Z-VLL-CHO (β-secretase inhibitor), 5 mg/Kg of JLK-6 (γ-secretase inhibitor) or with 10 mg/Kg of body weight of DAPT. Data were expressed as mean tumor volume±S.E for each treatment group.
At the completion of the study, animals were humanely euthanized and tumors were harvested and fixed in paraformaldehyde 4% overnight at 4° C. After paraffin embedding in an automated tissue processing Sakura Tissue-Tek (E150) (Torrence, Calif.), samples were cut into 5 μm sections, deparafinized, and rehydrated through a graded series of alcohol. Sections were treated with 0.02 mg/ml Proteinase K (Gentra Systems, MN) for 15 minutes at 37° C. to allow for proper antigen retrieval, washed several times in PBS and incubated for 15 minutes in a 0.3% solution of hydrogen peroxide. Sections were blocked and then immunostained with a 1:40 dilution of a PECAM-1 antibody (BD-Pharmingen, CA) overnight at 4° C. in a humidification chamber. Vector ABC Kits (Vector Laboratories Inc, CA) where used following the manufacturer's instruction for the immunostaining. Quantification of tumor vascularization was performed using the stereological dissector method. Briefly, forty consecutive sections were taken from a randomly chosen starting point in each tumor. Five sections for each tumor were selected for stereology by taking one section every eight sections. A dissector counting frame was used with inclusion and exclusion lines throughout the reference area. Vessel count was performed at ×400 magnification with the use of an Olympus microscope connected to a digital video camera. Microvessels were counted in the dissector frame by an experimenter unaware of the different treatment conditions. For each tumor an average vessel count per area of dissector frame was determined. A vascular index was calculated by expressing the vessel count as a percentage of the vessel count in the vehicle treatment condition.

explants of rat aortae = assay: rat aortic ring model of angiogenesis (microvessel outgrowths); assay type: cell-based, Sprague Dawley rats; details: for sprouting of microvessel outgrowths, overall / dose dependence: day 4, 5 and 6
Procedure: Twenty four well tissue culture grade plates (Nalgene International, NY) were covered with […] of Matrigel (Becton-Dickinson, Bedford, Mass.) and allowed to gel for 30 min at 37° C., 5% CO2. Briefly, thoracic aortae were excised from 9 month-old Sprague Dawley rats. After removing the fibroadipose tissue, arteries were sectioned into 1 mm long cross sections, rinsed 5 times with EBM (Clonetics Corp.) containing 4% fetal bovine serum (FBS) and placed on the Matrigel coated wells. Artery rings were covered with an additional […] of Matrigel. After polymerization the Matrigel was covered with 1 mL of EBM (4% FBS) containing various doses of Z-VVL-CHO, OM99-2, P10-P4′statV, DAPT, or L-685,458 as indicated in the figure legends (the culture medium was changed every 3 days). Pictures were taken at day 4, 5 and 6 using a 4×objective. Microvessel outgrowth area was quantified using the Image Pro Plus software. Briefly, ring cultures were photographed using a digital video camera linked to an Olympus BX60 microscope. The outgrowth area was delineated and measured with the Image Pro Plus software by using a strategy of microvessel outgrowth detection based on difference in color intensities between the outgrowths, the Matrigel and the artery ring. The artery rings were manually selected and excluded from the area of measurement and the color intensity threshold was adjusted to selectively measure the area occupied by the microvessel outgrowths. Results were expressed as a percentage of the area occupied by microvessel outgrowths at day 4 in control condition.

[2] = tested on: human brain endothelial cells; assay: proliferation of human brain endothelial cells (Quick cell proliferation assay kit); assay type: cell-based; details: various doses, 24 hours
Procedure: (§2) Primary cultures of human brain endothelial cells were plated at a density of 10^4 cells/[…] of EBM 4% in 96 wells culture plates and treated with various doses of γ-secretase and β-secretase inhibitors as indicated in the figure legends. Following 24 hours in culture, the EBM covering the cells was removed and assayed for Lacticodehydrogenase (LDH) activity using the cytotoxicity detection kit (Roche Diagnostic Corporation, Ind.). Cells were covered with […] of EBM 4% and cellular proliferation measured using the Quick cell proliferation assay kit (Biovision Research Products, Calif.).

[3] = tested on: human brain endothelial cells; assay: viability of human brain endothelial cells (LDH activity in culture medium); assay type: cell-based; details: 24 hours; for cellular toxicity / viability of human brain endothelial cells versus control: doses employed; for LDH activity in the culture medium, ANOVA main effect: various doses
Procedure: as §2

[4] = tested on: human glioblastoma (U-87 MG) xenografts; assay: human glioblastoma U-87 MG xenografts in nude mice; assay type: in vivo; details: Z-VLL-CHO 5 mg/Kg; for vascularization (vascular index) of U-87 MG tumors versus vehicle: DAPT 10 mg/Kg intraperitoneally, CD31/PECAM-1 immunostaining; for growth (tumor volume) of U-87 MG xenografts versus vehicle: intraperitoneally everyday for 9 days, DAPT 10 mg/Kg
Procedure: FIG. 8a: Anti-tumoral effect of the γ-secretase inhibitor DAPT and of the β-secretase inhibitor Z-VLL-CHO on human glioblastoma (U-87 MG) xenografts growth rates. U-87 MG cells (6×10^6) were injected subcutaneously into both flanks of 8-10 weeks-old nude mice. Mice were injected intraperitoneally with either the vehicle, 5 mg/Kg of body weight of the β-secretase inhibitor Z-VLL-CHO or 10 mg/Kg of body weight of the γ-secretase inhibitor DAPT, starting when tumors had reached a mean tumor volume of approximately 140 mm^3 (day 8 post implantation). Injections were given everyday for 9 days. […] FIG. 8b: Representative pictures of sections of glioblastoma tumors immunostained with CD31 antibodies. FIG. 8c: Histogram depicting the estimation of glioblastoma tumor vascularization.
as §1
At the completion of the study, animals were humanely euthanized and tumors were harvested and fixed in paraformaldehyde 4% overnight at 4° C. After paraffin embedding in an automated tissue processing Sakura Tissue-Tek (E150) (Torrence, Calif.), samples were cut into 5 μm sections, deparafinized, and rehydrated through a graded series of alcohol. Sections were treated with 0.02 mg/ml Proteinase K (Gentra Systems, MN) for 15 minutes at 37° C. to allow for proper antigen retrieval, washed several times in PBS and incubated for 15 minutes in a 0.3% solution of hydrogen peroxide. […] Quantification of tumor vascularization was performed using the stereological dissector method. […] Microvessels were counted in the dissector frame by an experimenter unaware of the different treatment conditions. For each tumor an average vessel count per area of dissector frame was determined. A vascular index was calculated by expressing the vessel count as a percentage of the vessel count in the vehicle treatment condition.

| SMILES | vascularization (vascular index) of A-549 tumors versus vehicle [1] | growth (tumor volume) of A-549 xenografts versus vehicle [1] | area covered by microvessel outgrowths versus control (explants of rat aortae; 5 μM) | area covered by microvessel outgrowths versus control (explants of rat aortae; 10 μM) | area covered by microvessel outgrowths versus control (explants of rat aortae; 20 μM) | proliferation of human brain endothelial cells, dose dependence [2] | cellular toxicity / viability of human brain endothelial cells versus control [3] | LDH activity in the culture medium, ANOVA main effect [3] | vascularization (vascular index) of U-87 MG tumors versus vehicle [4] | growth (tumor volume) of U-87 MG xenografts versus vehicle [4] | sprouting of microvessel outgrowths, overall / dose dependence (explants of rat aortae) | sprouting of microvessel outgrowths, overall / dose dependence (explants of rat aortae; listed as Z-VVL-CHO) |
| --- | --- | --- | --- | --- | --- | --- | --- | --- | --- | --- | --- | --- |
| C[C@H](NC(=O)Cc1cc(F)cc(F)c1)C(=O)N[C@H](C(=O)OC(C)(C)C)c1ccccc1 [DAPT, N-[N-(3,5-difluorophenacetyl-L-alanyl)]-S-phenylglycine t-butyl ester] | appeared to be decreased; also recorded: significantly reduce the vascularization | potently suppressed the growth; also recorded: significantly inhibit the growth | appeared to stimulate | no significant difference | inhibit | dose dependently inhibited | without inducing cellular toxicity | significant main effect | decreased vascularization; also recorded: significantly reduce the vascularization | completely inhibited the growth; also recorded: inhibit the growth | – | – |
| CC(C)C[C@@H](C=O)NC(=O)[C@H](CC(C)C)NC(=O)[C@@H](NC(=O)OCc1ccccc1)C(C)C [Z-VLL-CHO, N-benzyloxycarbony-val-leu-leucinal] (Cbz-Val-Leu-Leu-aldehyde) | appeared to be decreased; also recorded: significantly reduce the vascularization | potently suppressed the growth; also recorded: significantly inhibit the growth | – | – | – | dose dependently inhibited | without affecting their viability | significant main effect | decreased vascularization; also recorded: significantly reduce the vascularization | completely inhibited the growth; also recorded: inhibit the growth | profoundly anti-angiogenic; also recorded: dose dependently and potently inhibited | dose-dependently inhibits |

— patent US20040229816A1, “Anti-angiogenic and anti-tumoral properties of beta and gamma secretase inhibitors” (priority 2003, published 2004)
